Source: article PMC7156612, “Olinciguat, an Oral sGC Stimulator, Exhibits Diverse Pharmacology Across Preclinical Models of Cardiovascular, Metabolic, Renal, and Inflammatory Disease” (Frontiers in Pharmacology, 2020)

Assay: ZSF1 rat model of metabolic syndrome and diabetic nephropathy
Format: in vivo
Conditions: male, rat, plasma, oral; obese ZSF1, enalapril + olinciguat 30 mg/kg/day in chow; read-out: average total plasma concentration of olinciguat at Week 10
Method: Lean (n=8, 370–420 g, 15 weeks) and obese (n=32, 500–630 g, 15 weeks) male ZSF1 rats were studied. Rats were treated with enalapril to reflect standard of care drug treatment for patients with diabetic kidney disease. Dose modeling based on allometric scaling relationships estimated that a 10 mg/day enalapril dose in humans (within usual dose range of 10–40 mg based on prescribing information) corresponds to 1 mg/kg/day in rats ([Nair and Jacob, 2016]). To measure hemodynamics in freely moving animals, ZSF1 obese rats were implanted with telemetry transmitters (HD-S10, Data Sciences International) at 9–10 weeks of age, as described above.
The study included a 10-day pretreatment period and a 10-week treatment period. There were five groups of rats in the study. The lean ZSF1 control group (lean control, n=8) and one obese group (obese control, n=8) were fed normal chow and drinking water throughout the 10-day pretreatment period and the 10-week treatment period. Three groups of obese rats were treated with enalapril in drinking water (equivalent to 3 mg/kg/day) throughout the 10-day pretreatment period and the 10-week treatment period. During the treatment period, these enalapril-treated obese rats were administered normal chow (ENP, n=8) or chow containing olinciguat targeting the dose of 10 mg/kg/day (ENP+OLI10, n=8) or 30 mg/kg/day (ENP+OLI30, n=8). Blood and 24-h urine samples were obtained from all animals at baseline (immediately prior to initiation of enalapril treatment), the end of the 10-day pretreatment period (Day 10) and at week 5 and week 10 of the treatment period. Plasma samples were obtained from all olinciguat-treated animals for measurement of olinciguat exposure at week 10. During week 9 of treatment, rats were fasted for 16 h overnight prior to determination of fasting blood glucose using the AlphaTRAK (Abbott) glucose monitoring system. Body weight was measured once every other week. At the end of the study, rats were anesthetized and perfused via the left ventricle with heparinized PBS (1 U/ml heparin) containing IBMX (1 mM). Organs were collected and weighed, and plasma was collected in EDTA tubes. For serum, blood was collected in serum separator tubes, maintained at room temperature for at least 30 min and centrifuged at 6,000 rpm for 10 min, and then stored at −80°C until analysis. Urine and serum samples were analyzed using the Randox Daytona Clinical Chemistry Analyzer (Randox, Kearneysville, WV) for urine protein, serum cholesterol and serum triglycerides. All measurements were performed in accordance with manufacturer's instructions.
For histology, one kidney from each rat was fixed in 10% formalin, then embedded in paraffin. Slides were prepared and stained with hematoxylin and eosin (H&E) and periodic-acid Schiff (PAS) for light microscopic analysis. Kidney sections were evaluated for the presence of glomerular pathology, tubular damage, interstitial inflammation, interstitial fibrosis, and vascular alterations. Severity-based scoring based on these evaluations was performed by a trained pathologist.
For the ZSF1 experiment, data are expressed as mean ± standard error of the mean (SEM).
In the ZSF1 study, change from baseline NT-proBNP, week 10 heart, kidney, and liver weight, urine volume, cholesterol, triglycerides, glucose, and renal histopathology sum score were analyzed by one-way ANOVA corrected for multiple comparisons using Tukey's method. Statistically significant differences vs the obese control and vs the ENP group are indicated in the results. MAP and UPE were analyzed by an ordinary two-way ANOVA with timepoint and treatment group as independent variables, followed by a Tukey's multiple comparisons test. Within each treatment group, significant differences vs baseline are indicated in the results. At week 10, statistically significant differences vs the obese control and vs the ENP control are also indicated in the results.

concentration at 10 weeks: 510 to 610 nM
SMILES: NC(=O)[C@](O)(CNc1nc(-c2cc(-c3ccon3)n(Cc3ccccc3F)n2)ncc1F)C(F)(F)F [olinciguat, (R)-3,3,3-trifluoro-2-(((5-fluoro-2-(1-(2-fluorobenzyl)-5-(isoxazol-3-yl)-1H-pyrazol-3-yl)pyrimidin-4-yl)amino)methyl)-2-hydroxypropanamide]
